For one experiment, the system named is BALB/c mice. The experiment can be described thus: In vivo mRNA delivery in mice with DNPs, whole-body bioluminescence imaging (IVIS). The note with it: mice; for Total flux (p/s): IVIS imaging 4 h after Luc-mRNA-IAJD injection. Here is the method: (§1) The exposure time was 1 min.
Luminescence characterization for in vivo transfection experiments employed bioluminescence imaging with an IVIS Spectrum imaging system (PerkinElmer, Waltham, MA). Mice were anesthetized with 3% of isoflurane (Piramal Healthcare Limited) and intraperitoneally (i.p.) administered with D-luciferin (Regis Technologies) at a dose of 150 mg/kg of body weight. Ten minutes post administration of D-luciferin, mice were placed on the imaging platform while being maintained on isoflurane via a nose cone and imaged using an exposure time of 60 seconds. […] To quantify luminescent flux, an oval ROI was placed over each organ of interest and analyzed.
(§2) Tissue luminescence signal was measured on the IVIS imaging system using an exposure time of 60 seconds using medium binning (binning=8) to ensure that the signal obtained was within operative detection range. […] Bioluminescence imaging was performed as described above.
Luminescence Characterization for In Vivo Transfection Experiments: bioluminescence imaging was performed with an IVIS Spectrum imaging system (PerkinElmer, Waltham, MA).

The test system of the next experiment is HEK293T cells. As to the kind of experiment: In vitro Luc-mRNA transfection, luciferase luminescence expression in HEK293T cells. It counts as cell-based, human. More on the design: unit not given here. Here is the method: In Vitro Transfection Activity of DNPs in Human Embrionic Kidney (HEK) 293T Cells: HEK293T cells were seeded into 96-well plates (20,000 cells/well/200 μL) and cultured for 24 h at 37° C. in 5% CO2 complete cell culture media. Screening experiments were performed with nonoptimized DNPs containing naked nucleoside-modified mRNA (Karikó, et al., Immunity 2005, 23, 165-175; Pardi, et al., Methods Mol. Biol. 2013, 969, 29-42), of molar mass 664,341 encoding firefly luciferase (mRNA-Luc). A constant concentration of mRNA-Luc of 125 ng/well was used. The transIT (TransIT-mRNA transfection Kit from Mirus Bio) and MC3-based LNPs (MC3: DLin-MC3-DMA, which is the FDA approved LNP for mRNA delivery) were used as positive controls for cell transfection at a concentration of mRNA-Luc of 125 ng/well, identical to that of the tested DNPs. Subsequently cells were cultured for 24 h, the medium was aspirated under reduced pressure by a glass pipette and cells were lysed with 30 μL/well of cell culture lysis reagent (Promega). The luminescence intensity corresponding to the luciferase protein expressed was characterized and analyzed.
In vitro mRNA Delivery: Human embryonic kidney (HEK) 293T cells (American Type Culture Collection) were cultured in Dulbecco's modified Eagle's medium (DMEM) supplemented with 10% inactivated fetal bovine serum (FBS) (Gemini Bio-Products), 2 mM L-glutamine and 100 U/mL penicillin/streptomycin (Life Technologies) (complete medium). For in vitro screening experiments, HEK293T cells were seeded into 96-well plates (20,000 cells/well/200 μL) and cultured for 24 h in at 37° C. and 5% CO2 in complete media. Cell were transfected with IAJDs with encapsulated naked nucleoside-modified mRNA encoding firefly luciferase (mRNA-Luc) with fixed concentration of mRNA-Luc, 125 ng per well. The transIT (TransIT®-mRNA Transfection Kit, Mirus Bio) was used as a positive control for cell transfection, accordingly per manufacturer protocol and added to cells at the concentration of mRNA-Luc, 125 ng per well, the same as for tested particles. Cells were further cultured for 24 h, then medium was aspirated, and cells were lysed with 30 μL/well of cell culture lysis reagent (Promega). For the characterization of luminescence intensity, 2.5 μL of the lysed cells was mixed with 10 μL of luciferase assay substrate and luminescence was analyzed using a MiniLumat LB 9506 luminometer (Berthold/EG&G; Wallac).
Luminescence characterization for in vitro transfection experiments was performed by determining the luminescence intensity for in vitro Luc-mRNA transfection experiments using a MiniLumat LB 9506 luminometer (Berthold/EG&G; Wallac).
For in vitro Luc-mRNA transfection screening experiments, human embryonic kidney 293 cells (HEK 293) were seeded into 96-well plates (20,000 cells/well/200 μL) and cultured for 18-20 hours at 37° C., 5% CO2 in complete Dulbecco's modified Eagle's medium (DMEM) supplemented with 2 mM L-glutamine (Life Technologies), 100 U/mL penicillin/streptomycin (Invitrogen) and 10% fetal bovine serum (FBS, Gemini Bio-Products). Cells were transfected with DNPs with encapsulated naked nucleoside-modified mRNA encoding firefly luciferase (Luc-mRNA) at constant concentration of Luc-mRNA, 125 ng per well. Luc-mRNA complexed with TransIT (TransIT®-mRNA Transfection Kit, Mirus Bio) or encapsulated in FDA approved MC3-based LNPs were used as positive controls for cell transfection, at the concentration of Luc-mRNA of 125 ng per well, the same as for tested DNPs. After transfection cells were further cultured at 37° C., 5% CO2 for 18-20 hours, then medium was aspirated and cells were lysed with luciferase cell culture lysis reagent (30 μL/well) (Promega, Madison, WI). […]

A further experiment deals with lung. As to the kind of experiment: In vivo mRNA delivery, IVIS imaging of organs: lung. The following applies: for Organs with luminescence: lung (weak/strong): Table 14. More on the design: species or system mice; key to Organs with luminescence: lung: strong: Strong meant the luminescence intensity in that organ was relatively high, compared to other organs; weak: Weak meant the luminescence intensity in that organ was relatively low, compared to other organs. Here is the method:
as §1, §2
(§3) Tissue luminescence signal was measured on the IVIS imaging system using a certain exposure time (60, 30 or 15 seconds) and medium binning (binning=8) to ensure that the signal obtained was within operative detection range.

For another experiment, the system named is liver. As to the kind of experiment: In vivo mRNA delivery, IVIS imaging of organs: liver. More on the design: species or system mice; key to Organs with luminescence: liver: strong: Strong meant the luminescence intensity in that organ was relatively high, compared to other organs; weak: Weak meant the luminescence intensity in that organ was relatively low, compared to other organs. The note with it: for Organs with luminescence: liver (weak/strong): Table 14. Here is the method:
as §1, §2, §3

Setting [1] is: Acetate buffer 10 mM pH 4.0, CIAJD 4 mg/mL, CLuc-mRNA 0.05 mg/mL, HEK293T, 125 ng/well.
Setting [2] is: Citrate buffer 10 mM pH 3.0, CIAJD 4 mg/mL, CLuc-mRNA 0.05 mg/mL, HEK293T, 125 ng/well.
[3] abbreviates: HEK293T cells, Luc-mRNA 125 ng/well, n=3.
Where [4] appears, read: Table 17, mice, IVIS, 4-6 h after injection, intensity relative to other organs.
Setting [5] is: Table 13, IVIS imaging 5 h after injection.
Setting [6] is: Table 13, IVIS imaging 6 h after injection.

Data on 15 compounds can be found in patent publication US20240252677A1, “ONE-COMPONENT DELIVERY SYSTEM FOR NUCLEIC ACIDS” (The Trustees of the University of Pennsylvania, priority 2021, published 2024).

“3,5-Bis(dodecyloxy)benzyl 3-(4-methylpiperazin-1-yl)propanoate [IAJD 84]”: in the experiment on BALB/c mice (4 h from injection, CIAJD 4.0 mg/mL, CLuc-mRNA 0.1 mg/mL, acetate buffer pH 5.2), the Organs with luminescence result is “Lung, spleen”. Besides, the Luminescence in the experiment with HEK293T cells (setting [1]) is listed as 3,876; with HEK293T cells (Acetate buffer 10 mM pH 5.2, CIAJD 4 mg/mL, CLuc-mRNA 0.10 mg/mL, HEK293T, 125 ng/well), 18,268; in the experiment on HEK293T cells (setting [2]), 819.

Consider `CCCCCCCCCCCCOc1cc(COC(=O)CCCN2CCCCC2)cc(OCCCCCCCCCCCC)c1` [IAJD 65, 3,5-Bis(dodecyloxy)benzyl 4-(piperidin-1-yl)butanoate], for which the “Total flux (p/s)” value in the experiment on BALB/c mice (Table 13) and with BALB/c mice (Table 14) was 0 p/s throughout. In the experiment with HEK293T cells (setting [3]), the Luminescence worked out at 18.

In the case of `CCCCCCCCCCCCOc1cc(COC(=O)CCCN2CCN(CCO)CC2)cc(OCCCCCCCCCCCC)c1` [IAJD 71, 3,5-Bis(dodecyloxy)benzyl 4-(4-(2-hydroxyethyl)piperazin-1-yl)butanoate], the Luminescence with HEK293T cells (setting [3]) is 473,548. For the same compound, the “Organs with luminescence: lung (weak/strong)” value (from here on “Organs … lung (weak/strong)”) in the experiment on lung (imaging 5 h after injection) is listed as “Lung (weak),”. The “Organs with luminescence: lung” value in the experiment on lung (setting [4]) was “Lung (weak),”. Besides, in the experiment with liver (imaging 5 h after injection), the “Organs with luminescence: liver (weak/strong)” value (from here on “Organs … liver (weak/strong)”) was “liver (weak),”. For the same compound, the “Organs with luminescence: liver” value with liver (setting [4]) is “liver (weak),”.

For `CCCCCCCCCCCCCCOc1cc(COC(=O)CCCN2CCN(C)CC2)cc(OCCCCCCCCCCCCCC)c1` [IAJD 74, 3,5-Bis(tetradecyloxy)benzyl 4-(4-methylpiperazin-1-yl)butanoate], the Luminescence in the experiment with HEK293T cells (setting [3]) is recorded as 3,926. Moreover, the “Organs … lung (weak/strong)” value in the experiment on lung (imaging 5 h after injection) was “Lung (weak),”. Also, the “Organs … liver (weak/strong)” value in the experiment with liver (imaging 5 h after injection) is recorded as “liver (weak),”.

In the case of `CCCCCCCCCCCCCCCCOc1cc(COC(=O)CCCN2CCN(C)CC2)cc(OCCCCCCCCCCCCCCCC)c1` [IAJD 75, 3,5-Bis(hexadecyloxy)benzyl 4-(4-methylpiperazin-1-yl)butanoate], the Luminescence in the experiment on HEK293T cells (setting [3]) is 68,572. In the experiment with lung (imaging 5 h after injection), the “Organs … lung (weak/strong)” value is listed as “Lung (weak),”. In addition, in the experiment with liver (imaging 5 h after injection), the “Organs … liver (weak/strong)” value is recorded as “liver (weak),”.

As for `CCCCC(CC)COc1cc(COC(=O)CCCN2CCN(C)CC2)cc(OCC(CC)CCCC)c1` (centres unmarked) [IAJD 76, 3,5-Bis((2-ethylhexyl)oxy)benzyl 4-(4-methylpiperazin-1-yl)butanoate], the Luminescence in the experiment on HEK293T cells (setting [3]) came to 17. The “Organs … lung (weak/strong)” value with lung (imaging 5 h after injection) is given as “Lung (weak),”. In addition, the “Organs … liver (weak/strong)” value in the experiment with liver (imaging 5 h after injection) is on record as “liver (weak),”.

With `CCCCCCCCCOc1cc(COC(=O)CCCN2CCN(C)CC2)cc(OCCCCCCCCC)c1` [IAJD 77, 3,5-Bis(nonyloxy)benzyl 4-(4-methylpiperazin-1-yl)butanoate], the Luminescence with HEK293T cells (setting [3]) is 129. Further, in the experiment with lung (imaging 5 h after injection), the “Organs … lung (weak/strong)” value was “Lung (weak),”. Also, the “Organs … liver (weak/strong)” value in the experiment with liver (imaging 5 h after injection) is “liver (weak),”.

As to `CCCCCCCCCCCCOc1ccc(COC(=O)CCCN2CCN(C)CC2)cc1OCCCCCCCCCCCC` [IAJD 78, 3,4-Bis(dodecyloxy)benzyl 4-(4-methylpiperazin-1-yl)butanoate], the Organs with luminescence result in the experiment with BALB/c mice (setting [5]) is on record as “Lung, spleen”. Also, the Luminescence in the experiment on HEK293T cells (setting [3]) is given as 8,688. Moreover, the “Organs … lung (weak/strong)” value in the experiment on lung (imaging 5 h after injection) is given as “Lung (strong),”.

For the compound `CCCCCCCCCCCCOc1cc(COC(=O)CCCN2CCN(C)CC2)cc(OCCCCCCCCCCCC)c1OCCCCCCCCCCCC` [IAJD 79, 3,4,5-Tris(dodecyloxy)benzyl 4-(4-methylpiperazin-1-yl)butanoate], the Luminescence in the experiment with HEK293T cells (setting [3]) was 27,615. For the same compound, in the experiment on lung (imaging 6 h after injection), the “Organs … lung (weak/strong)” value is listed as “Lung (weak),”. Also, the “Organs … liver (weak/strong)” value in the experiment on liver (imaging 6 h after injection) is “liver (weak),”.

As to `CCCCCCCCCCCCOCC(COCCCCCCCCCCCC)(COCCCCCCCCCCCC)COC(=O)CCCN1CCN(C)CC1` [IAJD 82, 3-(Dodecyloxy)-2,2-bis((dodecyloxy)methyl)propyl 4-(4-methylpiperazin-1-yl)butanoate], the Organs with luminescence entry in the experiment with BALB/c mice (setting [5]) was “spleen”. Further, in the experiment with HEK293T cells (setting [3]), the Luminescence is 17.

Take `CCCCCCCCCCCCOCC(COCCCCCCCCCCCC)(COCCCCCCCCCCCC)COC(=O)CCCN1CCN(CCO)CC1` [IAJD 83, 3-(Dodecyloxy)-2,2-bis((dodecyloxy)methyl)propyl 4-(4-(2-hydroxyethyl)piperazin-1-yl)butanoate]: in the experiment on HEK293T cells (setting [3]), the Luminescence is 68,691. Also, in the experiment on lung (imaging 5 h after injection), the “Organs … lung (weak/strong)” value is “Lung (weak),”. Besides, in the experiment with liver (imaging 5 h after injection), the “Organs … liver (weak/strong)” value was “liver (weak),”.

On to `CCCCCCCCCCCCOc1cc(COC(=O)CCN2CCN(C)CC2)cc(OCCCCCCCCCCCC)c1` [IAJD 84, 3,5-Bis(dodecyloxy)benzyl 3-(4-methylpiperazin-1-yl)propanoate], for which, in the experiment on HEK293T cells (setting [3]), the Luminescence was determined as 205. Also, the “Organs … lung (weak/strong)” value with lung (imaging 5 h after injection) was “Lung (weak),”. Moreover, the “Organs … liver (weak/strong)” value with liver (imaging 5 h after injection) is “liver (weak),”.

For the compound `CCCCC(CC)COc1ccc(COC(=O)CCCN2CCN(C)CC2)cc1OCC(CC)CCCC` (centres unmarked) [IAJD 103, 3,4-Bis((2-ethylhexyl)oxy)benzyl 4-(4-methylpiperazin-1-yl)butanoate], the Organs with luminescence result with BALB/c mice (setting [6]) is “Lung, spleen”. For the same compound, in the experiment on HEK293T cells (setting [3]), the Luminescence came out at 19. Also, the “Organs … lung (weak/strong)” value in the experiment with lung (imaging 6 h after injection) is reported as “Lung (strong),”.

Take `CCCCCCCCCCCCCCOc1cc(CNC(=O)CCCN2CCN(C)CC2)cc(OCCCCCCCCCCCCCC)c1` [IAJD 108, N-(3,5-bis(tetradecyloxy)benzyl)-4-(4-methylpiperazin-1-yl)butanamide]: the Organs with luminescence entry in the experiment with BALB/c mice (setting [6]) is recorded as “Lung, spleen”. Also, the Luminescence with HEK293T cells (setting [3]) is reported as 136,424. The “Organs … lung (weak/strong)” value with lung (imaging 6 h after injection) is “Lung (strong),”.

On to “Diheptyl 5,5′-((5-(((4-(4-methylpiperazin-1-yl)butanoyl)oxy)methyl)-1,3-phenylene)bis(oxy)) dipentanoate [IAJD 85]”, for which the Luminescence is reported as 734 with HEK293T cells (setting [1]); 2,498 in the experiment with HEK293T cells (Acetate buffer 10 mM pH 4.0, CIAJD 4 mg/mL, CLuc-mRNA 0.10 mg/mL, HEK293T, 125 ng/well); 1,176 in the experiment with HEK293T cells (setting [2]).
